# Measured values as given in patent US20100009348A1, “Methods and Constructs for Analyzing Biological Activities of Biological Specimens and Determining States of Organism” (ATTAGENE, INC., priority 2005, published 2010).
# Assay: STZ-induced type I diabetes in rats, blood glucose concentration
# Assay type: in vivo, rat
# Details: Sprague-Dawley male rats, single intra-peritoneal injection of 70 mg/kg STZ, seven days following the injection, tail vein blood
# Description: Experimental type I diabetes mellitus was induced in rats by using Streptozotocin (STZ), a N-nitroso derivative of D-glucosamine. Streptozotocin causes rapid necrosis in pancreatic β-cells of islets of Langerhans (Okamoto, 1985, Bioessays 2:15-21). STZ has been widely used to provoke insulin-dependent diabetes conditions in various laboratory animals, and animals treated with STZ are recognized in the art as a model of diabetes mellitus (Like and Rossini, 1976, Science 193:415-417).
# The design of the approach to compare sera from diabetic and healthy rats is illustrated in FIG. 4. Sprague-Dawley male rats aged 10-12 weeks were randomly allocated in two groups. Rats from one group received a single intra-peritonial injection of 70 mg/kg STZ (Sigma-Aldrich, St. Louis, Mo., USA) dissolved in freshly prepared 50 mM citrate buffer (pH, 4.0). Animals in control group received an equivalent volume of the citrate buffer. Seven days following the injection, blood samples were derived from a tail vein of the control and STZ treated animals. Development of the diabetic conditions in STZ treated animals was confirmed by blood glucose concentration measurements.
compound,measurement,value
"CN(N=O)C(=O)N[C@H]1C(O)O[C@H](CO)[C@@H](O)[C@@H]1O (mixture of isomers) [STZ, Streptozotocin]",blood glucose levels (hyperglycemia),at least 300 mg/dl
